Assay results: US20130183362A1, “SYNTHESIS OF ZINC ACRYLATE COPOLYMER FROM ACID FUNCTIONAL COPOLYMER, ZINC PYRITHIONE, AND COPPER COMPOUND” (ARCH CHEMICALS, INC., priority 2010, published 2013)
Like-named read-outs stand apart in the source and are kept apart here.

Conditions: SEM images; for Ave. Aspect Ratio (length/width): Hitachi S-300N, length divided by width
Procedure: All images were obtained using a Hitachi S-300N Scanning electron Microscope.
Procedure: Aspect ratio was determined by superimposing a micron scale over the particle images and visually comparing the width and length of the particles to the scale. Length divided by width determines the aspect ratio. The images were obtained using a Hitachi S-300N Scanning electron Microscope.

## On1ccccc1=S.On1ccccc1=S.[Cu] [Sample 507C, copper pyrithione]
  Ave. Aspect Ratio (length/width): 12.2

## On1ccccc1=S.On1ccccc1=S.[Cu] [Sample 508D, copper pyrithione]
  Ave. Aspect Ratio (length/width): 9.1

## On1ccccc1=S.On1ccccc1=S.[Cu] [Sample 513, copper pyrithione]
  particles having an aspect ratio greater than 15: none of the particles
  Ave. Aspect Ratio (length/width): 4.3
Listed as commercially available milled copper pyrithione
  Ave. Aspect Ratio (length/width): 4.3
